# From patent US20130123108A1, “ACTIVE SUBSTANCE COMPOSITION COMPRISING AT LEAST ONE NITROGEN ATOM-CONTAINING, HYPERBRANCHED POLYMER” (BASF SE, priority 2005, published 2013)
# Like-named read-outs stand apart in the source and are kept apart here.
# What was measured:
# [1] = Redispersing of polymer/active substance compositions in buffer, general procedure 1; type: physicochemical; parameters: key: 1: unsatisfactory redispersing, sediment; 2: no ambiguous assessment possible; 3: complete redispersing with clouding (weak to opaque); 4: clear solution; conditions: phosphate buffer pH 6.8
# Experimental: Each time 1 or 10% by weight solutions in N,N-dimethylformamide (DMF) of the hyperbranched polymer to be assessed and also 0.1% by weight solutions of the active substances, likewise in DMF, were provided. Active substance compositions were prepared by mixing in a Tecan pipetting robot with the use of 1 ml flat-bottomed glass vessels from HJ-Bioanalytik (96-well plates in the deep well format). Each time 50 μl of polymer and 500 μl of active substance solution were added to a vessel and the solvent was subsequently removed by drying for 24 hours in a vacuum-drying chamber at 70° C. and a pressure of less than 10 mbar. The test samples were subsequently redispersed by addition of 500 μl of buffer solution (phosphate buffer pH 6.8, 23.05 g of potassium dihydrogenphosphate, 23.30 g of disodium hydrogenphosphate, deionized water made up to 5000 ml) and subsequent shaking for two hours using an HP MTP shaker. The assessment was carried out by measuring the particle size using diffusion light scattering after a resting phase of 2 h.
# 1=unsatisfactory redispersing, sediment 2=no ambiguous assessment possible 3=complete redispersing with clouding (weak to opaque) 4=clear solution
# Determination of the properties of aqueous active substance compositions according to general procedure 1. Use was made of bentazon at a polymer/active substance ratio of 1:1 and metazachlor at a polymer/active substance ratio of 10:1.
# [2] = Solubility from solid dispersion with hyperbranched polymer, general procedure 2; type: physicochemical; conditions: for solubility at 24 h: pH 6.8, aqueous with cosolvent or surfactant or cyclodextrin, thermodynamic from solid
# Experimental: 0.5 g of the chosen polymer and 0.1 g of a compound to be dissolved in water were dissolved in approximately 20 ml of N,N-dimethylformamide (DMF). The mixture was stirred and subsequently freed from DMF. A solid dispersion of the chosen copolymer with the chosen compound to be dissolved was obtained. The solid dispersion was added to 100 ml of water (buffered to pH 6.8) and the mixture was stirred for 24 h. After filtration, solutions were obtained and their contents of the compound to be dissolved were determined using HPLC and a UV detector. The literature values for water solubilities of the chosen compounds and the wavelengths of the measurement by UV spectroscopy are listed in table 1:
# Determination of the properties of aqueous active substance compositions according to general procedure 2.
# [3] = literature values, Table 1; cited from earlier work
# [4] = Solubility in supersaturated polymer solution, general procedure 3; type: physicochemical; conditions: phosphate buffer pH 7.0 with hyperbranched polymer, pH 7, aqueous with cosolvent or surfactant or cyclodextrin, thermodynamic from solid, 0.2 g piroxicam, 20 g phosphate buffer pH 7.0, UV spectroscopy
# Experimental: Approximately 2 g of polymer were weighed out in a glass beaker. Subsequently, 0.2 g of piroxicam or 0.3 g of carbamazepine was each time weighed out into the charge in order to obtain a supersaturated solution. Subsequently, 20 g of phosphate buffer pH 7.0 were added. After filtration, solutions were obtained and their contents of the compound to be dissolved were determined by UV spectroscopy.
# Determination of the properties of aqueous active substance compositions according to general procedure 3.
# [5] = literature values, Table 2; cited from earlier work
# [6] = water buffered to pH 6.8 with hyperbranched polymer, 0.5 g polymer, 0.1 g compound, 100 ml water buffered to pH 6.8, stirred 24 h, HPLC/UV, read-out: Solubility in the presence of Polymer 5
# [7] = water buffered to pH 6.8 with hyperbranched polymer, Solubility in the presence of Polymer 1, 0.5 g polymer, 0.1 g compound, 100 ml water buffered to pH 6.8, stirred 24 h, HPLC/UV
compound,measurement,setting,value
CC(C)N1C(=O)c2ccccc2NS1(=O)=O [Bentazon],Assessment,"[1]; Polymer from example 1, polymer/active substance ratio 1:1",4
same,Assessment,"[1]; Polymer from example 6, polymer/active substance ratio 1:1",4
NC(=O)N1c2ccccc2C=Cc2ccccc21 [Carbamazepine],solubility at 24 h,[2]; [6],190 µg/mL
same,solubility at 24 h,[2]; [7],181 µg/mL
same,solubility at 24 h,"[2]; water buffered to pH 6.8 with hyperbranched polymer, Solubility in the presence of Polymer 4, 0.5 g polymer, 0.1 g compound, 100 ml water buffered to pH 6.8, stirred 24 h, HPLC/UV",336 µg/mL
same,Water solubility (without polymer),[3],120 µg/mL
CCOC(=O)/C(Cl)=C/c1cc(N2C(=O)C3=C(CCCC3)C2=O)ccc1Cl [Cinidon-ethyl],Solubility in the presence of Polymer 1,"[2]; 0.5 g polymer, 0.1 g compound, 100 ml water buffered to pH 6.8, stirred 24 h, HPLC/UV",97 µg/mL
same,Water solubility (without polymer),[3],0.057 µg/mL
N#Cc1nn(-c2c(Cl)cc(C(F)(F)F)cc2Cl)c(N)c1[S+]([O-])C(F)(F)F (centres unmarked) [Fipronil],solubility at 24 h,[2]; Solubility in the presence of Polymer 1,448 µg/mL
Cc1cccc(C)c1N(Cn1cccn1)C(=O)CCl [Metazachlor],Assessment,"[1]; Polymer from example 1, polymer/active substance ratio 10:1",3
same,Assessment,"[1]; Polymer from example 6, polymer/active substance ratio 10:1",3
CN1C(C(=O)Nc2ccccn2)=C(O)c2ccccc2S1(=O)=O [Piroxicam],solubility at 24 h,[2]; [6],1110 µg/mL
same,solubility at 24 h,[2]; [7],1020 µg/mL
same,solubility,"[4]; Solubility in the presence of Polymer 1, approx. 2 g polymer",9200 µg/mL
same,solubility,"[4]; approx. 2 g polymer, read-out: Solubility in the presence of Polymer 3",5300 µg/mL
same,Water solubility (without polymer),[5],420 µg/mL
same,Water solubility (without polymer),[3],200 µg/mL
